Data from patent US20250346600A1, “TRICYCLIC DERIVATIVES AND RELATED USES” (MOMA Therapeutics, Inc., priority 2023, published 2025).
Read-outs that look alike come from different tables or passages of the source.

Experiments:
[1] = target: T1, Full length WRN protein (aa 2-1432) (Homo sapiens (Human), UniProt Q14191); test: WRN ATPase ADP-Glo biochemical assay, Assay Format A (10 μM ATP); conditions: 0.25 nM WRN, 100 nM C6.18 ssDNA, 30 min preincubation, read-out: ATPase ADPGlo AC50 (uM)- Assay Format A
How it was run: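 Sf9-expressed FLAG-AVI-TEV-tagged WRN (0.5 nM) preincubated 30 min with compound (11-point 3-fold dilution). Reaction started with 200 nM C6.18 39-mer ssDNA and 20 μM ATP (addition concentrations), run 30 min at room temperature. ADP measured by ADP-Glo luminescence; IC50 from four-parameter fit, geometric mean of ≥2 runs.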

[2] = target: T1, Full length WRN protein (aa 2-1432); test: WRN ATPase ADP-Glo biochemical assay, Assay Format B (100 μM ATP); conditions: 0.25 nM WRN, 100 nM C6.18 ssDNA, 60 min preincubation, read-out: ATPase ADPGlo AC50 (uM)- Assay Format B
HCT116 cells = test: HCT116 (MSI) 7 day viability, CellTiter Glo; type: cell-based; conditions: 7 days, read-out: HCT116 (MSI) Viability 7 Day Abs AC50
How it was run: (§1)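 Seven-day viability is assessed with CellTiter Glo after compounds, diluted in ten 3-fold steps in DMSO, are exposed to HCT116 (50 cells/well) or HT29 (500 cells/well). Reported IC50 is the geometric mean of at least two independent runs.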

HT29 cells = test: HT29 (MSS) 7 day viability, CellTiter Glo; type: cell-based; conditions: 7 days, read-out: HT29 (MSS) Viability 7 Day CTGAbs AC50
How it was run: as §1

T1 sequence (Q14191 2-1432): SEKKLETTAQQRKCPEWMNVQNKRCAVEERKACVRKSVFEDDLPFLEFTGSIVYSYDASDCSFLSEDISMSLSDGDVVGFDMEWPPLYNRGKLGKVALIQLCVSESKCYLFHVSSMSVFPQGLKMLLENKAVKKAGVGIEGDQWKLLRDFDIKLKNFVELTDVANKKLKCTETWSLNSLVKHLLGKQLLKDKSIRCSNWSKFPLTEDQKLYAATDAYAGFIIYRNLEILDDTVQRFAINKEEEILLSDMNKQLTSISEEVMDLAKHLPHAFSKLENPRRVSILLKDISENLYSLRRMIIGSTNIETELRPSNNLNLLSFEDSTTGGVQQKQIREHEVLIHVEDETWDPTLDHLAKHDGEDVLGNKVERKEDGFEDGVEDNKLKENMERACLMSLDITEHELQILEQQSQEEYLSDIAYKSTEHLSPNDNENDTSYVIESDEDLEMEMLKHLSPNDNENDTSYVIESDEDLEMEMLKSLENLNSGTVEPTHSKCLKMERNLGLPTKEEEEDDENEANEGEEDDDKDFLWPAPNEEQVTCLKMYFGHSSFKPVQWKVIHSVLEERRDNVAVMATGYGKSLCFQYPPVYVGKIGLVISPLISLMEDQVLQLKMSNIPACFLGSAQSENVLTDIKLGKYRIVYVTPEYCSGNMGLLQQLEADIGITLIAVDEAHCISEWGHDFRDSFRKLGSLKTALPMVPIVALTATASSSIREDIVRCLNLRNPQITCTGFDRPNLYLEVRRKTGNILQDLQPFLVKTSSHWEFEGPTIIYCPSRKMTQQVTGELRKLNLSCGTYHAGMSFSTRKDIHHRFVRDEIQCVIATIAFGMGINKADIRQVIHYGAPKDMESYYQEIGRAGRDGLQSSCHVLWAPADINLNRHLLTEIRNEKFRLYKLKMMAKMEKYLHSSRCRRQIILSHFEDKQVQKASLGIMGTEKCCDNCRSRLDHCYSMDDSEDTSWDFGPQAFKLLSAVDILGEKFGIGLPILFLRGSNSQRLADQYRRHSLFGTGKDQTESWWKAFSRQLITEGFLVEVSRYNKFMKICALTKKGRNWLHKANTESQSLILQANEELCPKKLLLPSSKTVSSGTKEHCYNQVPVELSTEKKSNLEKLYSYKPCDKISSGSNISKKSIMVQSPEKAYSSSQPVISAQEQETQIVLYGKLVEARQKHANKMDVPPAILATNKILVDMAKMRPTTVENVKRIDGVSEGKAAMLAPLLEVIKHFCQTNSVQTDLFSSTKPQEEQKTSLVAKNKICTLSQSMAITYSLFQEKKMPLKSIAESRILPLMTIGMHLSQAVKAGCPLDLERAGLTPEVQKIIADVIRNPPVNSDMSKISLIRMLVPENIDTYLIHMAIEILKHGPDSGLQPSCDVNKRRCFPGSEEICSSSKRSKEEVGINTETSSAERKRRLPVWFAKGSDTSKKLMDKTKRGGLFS

AC50 [1] [µM]	AC50 [2] [µM]	SMILES	AC50 (HCT116 cells) [nM]	AC50 (HT29 cells) [nM]	AC50 (HCT116 cells; Homo sapiens, HCT-116, 168 h) [nM]	AC50 (HT29 cells; Homo sapiens, HT-29, 168 h) [nM]
< 0.0015	0.005 to 0.015	C=CC(=O)N1CC(C)c2nn(-c3ccc(C4CCC4)cc3O)c3c2C(C1)N(C(=O)c1cnc(C(F)(F)F)cc1N)CC3 (centres unmarked) [Compound 135, 1-(5-(4-amino-6-(trifluoromethyl)nicotinoyl)-2-(4-cyclobutyl-2-hydroxyphenyl)-9-methyl-2,3,4,5,5a,6,8,9-octahydro-7H-1,2,5,7-tetraazabenzo[cd]azulen-7-yl)prop-2-en-1-one]	1 to 100	> 3000	–	–
< 0.0015	0.015 to 0.055	C=CC(=O)N1CCc2nn(-c3ccc(C4CCC4)cc3O)c3c2C(C1)N(C(=O)c1cnc(C(F)(F)F)c(SC)c1)CC3 (centres unmarked) [Compound 89, 1-(2-(4-cyclobutyl-2-hydroxyphenyl)-5-(5-(methylthio)-6-(trifluoromethyl)nicotinoyl)-2,3,4,5,5a,6,8,9-octahydro-7H-1,2,5,7-tetraazabenzo[cd]azulen-7-yl)prop-2-en-1-one]	–	–	1 to 100	> 3000
0.0015 to 0.005	0.015 to 0.055	C=CC(=O)N1CCc2nn(-c3ccc(C4CC4)cc3)c3c2C(C1)N(C(=O)c1cnc(C(F)(F)F)c(O)c1)CC3 (centres unmarked) [Compound 1, 1-(2-(4-cyclopropylphenyl)-5-(5-hydroxy-6-(trifluoromethyl)nicotinoyl)-2,3,4,5,5a,6,8,9-octahydro-7H-1,2,5,7-tetraazabenzo[cd]azulen-7-yl)prop-2-en-1-one]	–	–	100 to 250	> 3000
< 0.0015	0.005 to 0.015	C=CC(=O)N1CCc2nn(-c3ccc(C4CCC4)cc3O)c3c2C(C1)N(C(=O)c1ccc2c(Br)n[nH]c2c1)CC3 (centres unmarked) [Compound 24, 1-(5-(3-bromo-1H-indazole-6-carbonyl)-2-(4-cyclobutyl-2-hydroxyphenyl)-2,3,4,5,5a,6,8,9-octahydro-7H-1,2,5,7-tetraazabenzo[cd]azulen-7-yl)prop-2-en-1-one]	–	–	1 to 100	> 3000
< 0.0015	0.005 to 0.015	C=CC(=O)N1CC(C)c2nn(-c3ccc(C4CC4)cc3O)c3c2C(C1)N(C(=O)c1cnc(C(F)(F)F)cc1N)CC3 (centres unmarked) [Compound 189, 1-(5-(4-amino-6-(trifluoromethyl)nicotinoyl)-2-(4-cyclopropyl-2-hydroxyphenyl)-9-methyl-2,3,4,5,5a,6,8,9-octahydro-7H-1,2,5,7-tetraazabenzo[cd]azulen-7-yl)prop-2-en-1-one]	–	–	1 to 100	> 3000
< 0.0015	0.005 to 0.015	C=CC(=O)N1CC(C)c2nn(-c3ccc(C4CCC4)cc3O)c3c2C(C1)N(C(=O)c1cnc(C(F)(F)F)cc1N)CC3 (centres unmarked) [Compound 130, 1-(5-(4-amino-6-(trifluoromethyl)nicotinoyl)-2-(4-cyclobutyl-2-hydroxyphenyl)-9-methyl-2,3,4,5,5a,6,8,9-octahydro-7H-1,2,5,7-tetraazabenzo[cd]azulen-7-yl)prop-2-en-1-one]	–	–	1 to 100	> 3000
0.0015 to 0.005	0.015 to 0.055	C=CC(=O)N1CC(C)c2nn(-c3ccc(C(C)C)cc3O)c3c2C(C1)N(C(=O)c1ccc(Br)c2[nH]cnc12)CC3 (centres unmarked) [Compound 31, 1-(5-(7-bromo-1H-benzo[d]imidazole-4-carbonyl)-2-(2-hydroxy-4-isopropylphenyl)-9-methyl-2,3,4,5,5a,6,8,9-octahydro-7H-1,2,5,7-tetraazabenzo[cd]azulen-7-yl)prop-2-en-1-one]	250 to 500	–	–	> 3000
< 0.0015	0.005 to 0.015	C=CC(=O)N1CCc2nn(-c3ccc(C4CCC4)c(O)c3)c3c2C(C1)N(C(=O)c1cnc(C(F)(F)F)c(O)c1)CC3 (centres unmarked) [Compound 91, 1-(2-(4-cyclobutyl-3-hydroxyphenyl)-5-(5-hydroxy-6-(trifluoromethyl)nicotinoyl)-2,3,4,5,5a,6,8,9-octahydro-7H-1,2,5,7-tetraazabenzo[cd]azulen-7-yl)prop-2-en-1-one]	–	–	250 to 500	> 3000
